The record followed here is US20230105212A1, “BIPHENYL DERIVATIVE INHIBITOR, PREPARATION METHOD THEREFOR AND USE THEREOF” (SHANGHAI HANSOH BIOMEDICAL CO., LTD., priority 2020, published 2023).

Assay [1] has as its target T1, human PD-1/PD-L1 binding (Homo sapiens, UniProt Q9NZQ7).
T1 construct: PD-L1-His protein (19 to 238 amino acids) (Abcam #ab167713); purchased Abcam (PD-L1-His); R&D (PD-1-Fc) ab167713; 1086-PD
Put plainly: Inhibition of human PD-1/PD-L1 binding (TR-FRET/HTRF). The note with it: TR-FRET, PD-L1-His and PD-1-Fc; read-out: PD-1/PD-L1 binding IC50. In short, it runs like this:
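PD-L1-His (aa 19–238, diluted to 10 nM) and PD-1-Fc (aa 25–167, diluted to 20 nM) incubated with compounds (10 μM or 1 μM top, 3-fold, 11 doses) 60 min at room temperature, then anti-6HIS Eu cryptate/anti-human IgG-XL665 added for 3 h RT or overnight 4 °C. HTRF 665/620 nm ratio gave inhibition and IC50.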

The test system of assay [2] is CHO-PDL1/Jurkat-PD1 cell pathway. Briefly: Inhibition of CHO-PDL1/Jurkat-PD1 cell pathway (NFAT luciferase reporter). Type of assay: cell-based. As to conditions: for EC50: 6 hours incubation, luciferase signal; for maximal fold induction: relative to the signal value of the non-dosed group, read-out: Maximum induction fold. An outline of the steps:
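CHO-K1 cells stably expressing PD-L1, plated overnight, then co-cultured with PD-1/NFAT-luc2 Jurkat cells plus compounds in RPMI 1640 with 2% FBS for 6 h at 37 °C. Luminescence read after One-Glo, 10 min at RT. EC50 fitted from the concentration–signal curve; maximum induction fold calculated relative to the non-dosed group.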

For assay [3], the target named is T2, human PD-L1 protein (Homo sapiens, UniProt Q9NZQ7).
T2 construct: purchased Acro Biosystems PD1-H5229
T2 sequence (Q9NZQ7 19-238 limits assumed): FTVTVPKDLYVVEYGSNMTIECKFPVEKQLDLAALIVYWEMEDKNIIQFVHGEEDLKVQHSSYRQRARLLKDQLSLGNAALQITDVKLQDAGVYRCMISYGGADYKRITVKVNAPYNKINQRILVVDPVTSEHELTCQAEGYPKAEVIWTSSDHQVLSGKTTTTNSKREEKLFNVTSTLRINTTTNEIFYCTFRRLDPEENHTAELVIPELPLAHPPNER
Briefly: Thermal shift: melting temperature of PD-L1 protein. As to conditions: compound 10 μM, PD-L1 protein 2 μM, Tm minus DMSO vehicle control; read-out: ΔTm (° C.). It counts as binding. In short, it runs like this: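 Human PD-L1 at 2 μM final was tested in […], 150 mM NaCl with SYPRO Orange, heated 25→95 °C at 0.03 °C/s in a PCR melt-curve run. Tm was taken per treatment; ΔTm is the shift relative to DMSO vehicle.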

T1 sequence (Q9NZQ7 19-238): as the sequence (Q9NZQ7 19-238 limits assumed) above

The EC50 is the concentration that produces a half-maximal response. Low values mean greater potency, high ones weaker potency. As usually defined, the ΔTm is the change in melting temperature against a reference sample. For the compound `COc1nc(-c2cccc(-c3cccc(NC(=O)c4nc5c(n4C)CCN(C)C5)c3Cl)c2Cl)ccc1CN1CC2(C1)CN(S(C)(=O)=O)C2` [Embodiment 192], in assay [1], the IC50 is 9 nM. In addition, in assay [2], the 50% effective concentration (EC50) turned out to be 85 nM and the maximal fold induction is 3.8. For the same compound, the shift in melting temperature (ΔTm) at 10 µM in assay [3] was determined as 14 °C.
As to `COc1nc(-c2cccc(-c3cccc(NC(=O)c4nc5c(n4C)CCN(C)C5)c3Cl)c2Cl)cnc1CN1CC(NC(C)=O)C1` [Embodiment 218, N-(3′-(5-((3-Acetylaminoazetidin-1-yl)methyl)-6-methoxypyrazin-2-yl)-2,2′-dichloro-[1,1′-biphenyl]-3-yl)-1,5-dimethyl-4,5,6,7-tetrahydro-1H-imidazo[4,5-c]pyridine-2-carboxamide], the IC50 in assay [1] was found to be 3.7 nM. In assay [2], the EC50 was found to be 54 nM and the maximal fold induction is 2.8. Further, the ΔTm at 10 µM in assay [3] turned out to be 13.7 °C.
Consider `COc1nc(-c2cccc(-c3cccc(NC(=O)c4nc5c(n4C)CCN(C)C5)c3Cl)c2Cl)ncc1CN1CC(CO)C1` [Embodiment 223, N-(2,2′-Dichloro-3′-(5-((3-(hydroxymethyl)azetidin-1-yl)methyl)-4-methoxypyrimidin-2-yl)-[1,1′-biphenyl]-3-yl)-1,5-dimethyl-4,5,6,7-tetrahydro-1H-imidazo[4,5-c]pyridine-2-carboxamide], for which, in assay [1], the IC50 turned out to be 2.4 nM. In assay [2], a half-maximal effect (EC50) was put at 73 nM and the maximal fold induction is 3.3. Moreover, the ΔTm at 10 µM in assay [3] is 12.3 °C.
As to `COc1nc(-c2cccc(-c3cccc(NC(=O)c4nc5c(n4C)CCN(C)C5)c3Cl)c2Cl)ccc1CN1CC2(CC(NC(C)=O)C2)C1` [Embodiment 234, N-(3′-(5-((6-Acetylamino-2-azaspiro[3.3]heptan-2-yl)methyl)-6-methoxypyridin-2-yl)-2,2′-dichloro-[1,1′-biphenyl]-3-yl)-1,5-dimethyl-4,5,6,7-tetrahydro-1H-imidazo[4,5-c]pyridine-2-carboxamide], the IC50 in assay [1] was found to be 2.5 nM. In addition, in assay [2], the midpoint of the response, the EC50, lay at 78 nM and the maximal fold induction worked out at 4.7. Besides, the ΔTm at 10 µM in assay [3] was found to be 15.6 °C.
